Laboratory results taken from paper PMC10504874 (Journal of medicinal chemistry, 2021).
Read-outs that look alike come from different tables or passages of the source. Residues, ends and D or L forms follow the SMILES beside them. *: point of attachment. Cbz = O=C(OCc1ccccc1)*

Experiments:
cruzain [1] = molecular target: T1, cruzain (Trypanosoma cruzi, UniProt P25779); test: Cruzain inhibition, fluorogenic substrate Cbz-Phe-Arg-AMC time courses; type: biochemical
cruzain [2] = molecular target: T1, cruzain; test: biochemical; settings: read-out: Residence time τ=1/kobs
[3] = test system: T. cruzi-infected cardiomyoblasts; test: T. cruzi-infected C2C12 murine cardiomyoblast assay; type: cell-based; settings: Trypanosoma cruzi, C2C12, in Mus musculus, 48 h, read-out: T. cruzi-infected cardiomyoblasts EC50, C2C12 cells, T. cruzi Ca-I/72, 2 days, 0.02–40 μM
[4] = test system: C2C12 murine cardiomyoblast cells; test: Toxicity against host cardiomyoblasts in the T. cruzi infection assay; type: cell-based; settings: at up to 40 μM
[5] = Detection of aldehyde content using phenylhydrazine; type: physicochemical; settings: 0.2 mM compound, 1 mM phenylhydrazine; for Reaction with excess phenylhydrazine (in words): 2 h; for kobs of phenylhydrazone formation: Abs 282 nm, pH 7.5 buffer lacking DTT
[6] = Pharmacokinetic evaluation in mice by intravenous administration; type: in vivo; settings: data not shown
[7] = Stability of prodrugs in buffer without esterase; type: physicochemical; settings: buffer pH 7.5, over 3 h
human cathepsin L = human cathepsin L (Homo sapiens, UniProt P07711); test: Human cathepsin L inhibition; type: biochemical
T. b. brucei BSFs [8] = test: Axenic cultures of T. b. brucei bloodstream forms, growth inhibition; settings: Trypanosoma brucei, read-out: T. b. brucei BSFs EC50
T. b. brucei BSFs [9] = settings: read-out: EC50 in T. b. brucei BSFs; cited from earlier work

T1 sequence (P25779 123-337 limits assumed): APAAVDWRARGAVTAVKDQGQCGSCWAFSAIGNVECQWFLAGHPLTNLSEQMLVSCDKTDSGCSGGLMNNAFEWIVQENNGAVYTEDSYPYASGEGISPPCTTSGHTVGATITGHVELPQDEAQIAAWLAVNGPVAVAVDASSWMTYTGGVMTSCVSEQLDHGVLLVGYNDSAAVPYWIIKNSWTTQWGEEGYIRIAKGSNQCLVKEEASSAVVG
Sequence of human cathepsin L (P07711 114-333): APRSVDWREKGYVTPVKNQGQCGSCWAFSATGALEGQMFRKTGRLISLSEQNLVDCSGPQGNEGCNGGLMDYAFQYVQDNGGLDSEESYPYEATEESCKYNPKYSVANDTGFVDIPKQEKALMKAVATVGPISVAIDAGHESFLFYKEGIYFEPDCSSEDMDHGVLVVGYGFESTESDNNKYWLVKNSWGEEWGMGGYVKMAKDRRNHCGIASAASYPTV

In the case of `CN1CCN(C(=O)N[C@@H](Cc2ccccc2)C(=O)N[C@@H]2Cc3ccccc3C[C@H]2O)CC1` (mixture of isomers) [Compound 3, N-((S)-1-(((2S,3S)-3-hydroxy-1,2,3,4-tetrahydronaphthalen-2-yl)amino)-1-oxo-3-phenylpropan-2-yl)-4-methylpiperazine-1-carboxamide and N-((S)-1-(((2R,3R)-3-hydroxy-1,2,3,4-tetrahydronaphthalen-2-yl)amino)-1-oxo-3-phenylpropan-2-yl)-4-methylpiperazine-1-carboxamide], the “Cruzain inhibition (in words)” value (cruzain [1]; at ≤100 μM) is reported as “did not inhibit cruzain”.
With `O=C[C@H](Cc1ccccc1)NC(=O)[C@H](Cc1ccccc1)NC(=O)OCc1ccccc1` [Compound 1, Cbz-Phe-Phe-H] (Cbz-Phe-Phe-aldehyde) the “k4, rate constant for conversion of EI* back to EI” value (cruzain [1]; from replot of kobs vs [I], eq 3) was “(7.6±0.6)×10^–4 s^–1”, the residence time (cruzain [2]) was 52 min and the EC50 [3] was 400 nM. For the same molecule, the “Toxicity against the host cardiomyoblasts” value [4] was “significant cytotoxicity”.
With `O=C(N[C@@H](Cc1ccccc1)C(=O)N[C@H]1Cc2ccccc2OC1O)OCc1ccccc1` (stereo partly drawn) [Compound 2, Cbz-Phe-o-Tyr-H] the “Ratio Ki*(SMAI)/Ki*(free aldehyde counterpart)” value (cruzain [1]; Ki*(12)/Ki*(11), Ki*(2)/Ki*(1)) was 110 and the residence time (cruzain [2]) was 2.5 to 5.5 min.
For `COc1ccccc1C[C@@H](C=O)NC(=O)[C@H](Cc1ccccc1)NCC(=O)OCc1ccccc1` [Compound 5], the “Fold less active than aldehyde 1 versus cruzain” value (cruzain [1]) was 50 fold.
For `COc1ccc2c(c1)C[C@H](NC(=O)[C@H](Cc1ccccc1)NC(=O)OCc1ccccc1)C(O)O2` (some centres unmarked) [Compound 6], the “Fold lower activity than 7” value (cruzain [1]) was “over 3 fold”, the “Fold more weakly binding than un-substituted SMAI 2” value (cruzain [1]) was 7 fold and the residence time (cruzain [2]) was 2.5 to 5.5 min.
`Cc1ccc2c(c1)C[C@H](NC(=O)[C@H](Cc1ccccc1)NC(=O)OCc1ccccc1)C(O)O2` (stereo partly drawn) [Compound 7, Benzyl ((2S)-1-(((3S)-2-hydroxy-6-methylchroman-3-yl)amino)-1-oxo-3-phenylpropan-2-yl)carbamate] gave a residence time (cruzain [2]) of 2.5 to 5.5 min.
`O=C(N[C@@H](Cc1ccccc1)C(=O)N[C@H]1Cc2cc(Cl)ccc2OC1O)OCc1ccccc1` (some centres unmarked) [Compound 8] showed a residence time (cruzain [2]) of 2.5 to 5.5 min.
Work on `O=C(N[C@@H](Cc1ccccc1)C(=O)N[C@H]1Cc2cc(F)ccc2OC1O)OCc1ccccc1` (some centres unmarked) [Compound 9] yielded a residence time (cruzain [2]) of 2.5 to 5.5 min.
In the case of `COC(=O)c1ccc2c(c1)C[C@H](NC(=O)[C@H](Cc1ccccc1)NC(=O)OCc1ccccc1)C(O)O2` (some centres unmarked) [Compound 10], the “Fold increase in potency versus 2” value (cruzain [1]) is reported as 3 fold and the residence time (cruzain [2]) is reported as 2.5 to 5.5 min.
With `CN1CCN(C(=O)N[C@@H](Cc2ccccc2)C(=O)N[C@H](C=O)CCc2ccccc2)CC1` [Compound 11, 4-Methyl-N-((S)-1-oxo-1-(((S)-1-oxo-4-phenylbutan-2-yl)amino)-3-phenylpropan-2-yl)piperazine-1-carboxamide] the “Reaction with excess phenylhydrazine (in words)” value [5] was “completely converted to phenylhydrazone” and the “kobs of phenylhydrazone formation” value [5] was “(2.61±0.05)×10^–4 s^–1”.
For `CN1CCN(C(=O)N[C@@H](Cc2ccccc2)C(=O)N[C@H]2Cc3ccccc3OC2O)CC1` (some centres unmarked) [Compound 12], the residence time (cruzain [2]) was 26 min, the “Reaction with excess phenylhydrazine (in words)” value [5] was “remained intact after 2 h” and the “kobs of phenylhydrazone formation” value [5] was “negligible”. For the same molecule, the “Half-life in mice (in words)” value [6] was “short half-life”.
For `CC(=O)OC1Oc2ccccc2C[C@@H]1NC(=O)[C@H](Cc1ccccc1)NC(=O)N1CCN(C)CC1` (stereo partly drawn) [Compound 13, (3S)-3-((S)-2-(4-methylpiperazine-1-carboxamido)-3-phenylpropanamido)chroman-2-yl acetate], the “Degradation in buffer without esterase” value [7] was “about 10%”.
For `CCOC1Oc2ccccc2C[C@@H]1NC(=O)[C@H](Cc1ccccc1)NC(=O)N1CCN(C)CC1` (stereo partly drawn) [Compound 16, N-((2S)-1-(((3S)-2-ethoxychroman-3-yl)amino)-1-oxo-3-phenylpropan-2-yl)-4-methylpiperazine-1-carboxamide], the “Cruzain inhibition by prodrugs (in words)” value (cruzain [1]) was “did not inhibit cruzain”.
For `CC(C)OC1Oc2ccccc2C[C@@H]1NC(=O)[C@H](Cc1ccccc1)NC(=O)N1CCN(C)CC1` (some centres unmarked) [Compound 17], the “Cruzain inhibition by prodrugs (in words)” value (cruzain [1]) was “did not inhibit cruzain”.
In the case of `CC(C)[C@H](NC(=O)OCc1ccccc1)C(=O)N[C@@H](CC1CCCCC1)C(=O)N[C@H](C=O)Cc1ccc[nH]c1=O` [Compound 18], the “Inhibition of human cathepsin L (in words)” value (human cathepsin L) is reported as “inhibited human cathepsin L”.
With `CN1CCN(C(=O)N[C@@H](Cc2ccccc2)C(=O)N[C@H](/C=C/S(=O)(=O)c2ccccc2)CCc2ccccc2)CC1` [K777, reference compound] the “Toxicity against the host cardiomyoblasts” value [4] was “significant cytotoxicity” and the EC50 (T. b. brucei BSFs [8]) was 90 ± 60 nM.
For `N=C(N)c1ccc(/N=N/Nc2ccc(C(=N)N)cc2)cc1` [diminazene], the EC50 (T. b. brucei BSFs [9]) is listed as 990 nM.
